Patent US20220096664A1, “STABILIZED FORMULATIONS CONTAINING IODINATED CONTRAST AGENTS AND CYCLODEXTRINS” (Verrow Pharmaceuticals, Inc., priority 2012, published 2022)
Like-named read-outs stand apart in the source and are kept apart here.

Legend:
[1] = assay type: physicochemical; conditions: for Iodide formed: 50 mM agent, 10 mM TRIS, pH 7.4, autoclaved then UV 18 h; for percent change in iodide degradants, UV: 24 h; for percent change in iodide degradants, UV / percent change in iodide degradants, VIS: pH 7.1; for percent change in iodide degradants, VIS: 72 h
Method: (§1) The lamps were switched on and the solutions irradiated for 18 to 24 hours for the ultraviolet (UV) lamps or 72 to 90 hours for the visible (VIS) light lamps. At the end of the selected irradiation time, the cuvettes were removed from the photolysis chamber and mixed by inversion 2-times. The caps were then removed and 40 microliter aliquots taken and diluted with 1 mL of an aqueous solution containing ˜0.9 mg/mL sodium thiosulfate. The thiosulfate solution converted any I2, IO3^−, and I3^− present in the solution tor such that total iodine species could be determined in one assay.
(§2) The diluted solutions were assayed by high pressure liquid chromatography (HPLC) using a 4.6×250 mm, C-18, 5 micron particle size, reversed phase column with detection at 280 nm for the contrast agent and 230 nm for the thiosulfate and the iodide ion (r). A mobile phase of 30:70 methanol:aqueous buffer (50 mM KH2PO4+7 mL/L 40% tetrabutyl ammonium hydroxide) at 0.75 mL/min was used for elution. Injection volume was 20 microliters. External standards were prepared containing each contrast agent, potassium iodide, and sodium thiosulfate solution and analyzed along with the irradiated samples. The results were reported as weight percentage iodide formed (mg iodide/mg contrast agent times 100).
Aqueous solutions were prepared containing 50 mM iodinated contrast agent, 10 mM tromethamine HCl buffer (TRIS), with and without sulfobutylether beta-cyclodextrin with an average degree of substitution-7 (SBE7-β-CD), or 2-hydroxypropyl beta-cyclodextrin with an average degree of substitution of ˜6.3 (HP6.3-β-CD) or ˜4.3 (HP4.3-β-CD). The iohexol solution was prepared by dissolving solid iohexol powder while the other solutions were prepared by diluting commercial formulated products and adding sufficient TRIS buffer to reach 10 mM. The pH of the solutions was adjusted to 7.4 with 0.1N hydrochloric acid.
Aliquots of the solutions were irradiated with visible light for 72 hours (0.52 million lux hours). Other aliquots were autoclaved for 20 minutes at 121° C., cooled to room temperature and then irradiated with ultraviolet light for 18 hours (119 watt hours/m2). The solutions were then processed, analyzed and reported as in Example 2, except that the chromatographic peaks of the contrast agents were evaluated at 300 nm for both samples and standards.
Aqueous solutions were prepared containing 50 mM iohexol, 0, 2.5, 5, 7.5, or 10 mM tromethamine HCl (TRIS) buffer, with and without 2.5 mM sulfobutylether beta-cyclodextrin with an average degree of substitution-7 (SBE7-β-CD). The pH of the solutions was adjusted to 7.4 with 0.1N hydrochloric acid and the solutions were transferred to glass vials. The vials were stoppered, crimp-capped and autoclaved for 20 minutes at 121° C. The pH of the autoclaved solutions was measured after the solutions were at room temperature.
Aliquots of the autoclaved solutions were irradiated with visible light for 72 hours (0.52 million lux hours) and other aliquots irradiated with ultraviolet light for 18 hours (119 watt hours/m2). The solutions were then processed, analyzed and reported as in Example 2, except that the chromatographic peak of the iohexol was evaluated at 300 nm for both samples and standards.
Aqueous formulations were prepared containing iodinated contrast agents at concentrations used commercially in medical procedures. Sulfobutylether-cyclodextrin, sodium salt, average degree of substitution ˜7 (SBE7CD) was added at varying agent:CD mole ratios. The formulations were placed in glass vials, sealed with rubber stoppers and aluminum crimps, and autoclaved at 121° C. for 20 minutes. […]

[2] = Photostability: iodide formed after visible light irradiation; assay type: physicochemical; conditions: for Iodide formed: 50 mM agent, 10 mM TRIS, pH 7.4, VIS 72 h
Method: Aqueous solutions comprising iodinated contrast agents were prepared and evaluated in a photolysis chamber as described in the ICH guidance document, Q1B Photostability Testing of New Drug Substances and Products, available from the US Food and Drug Administration, incorporated herein by reference. The solutions were placed in 1 cm×1 cm (3 mL) quartz cuvettes having 2 clear sides and 2 sides etched. Lids were placed on the cuvettes and sealed with a wrap of Parafilm® around the joint. The cuvettes were placed in a photolysis chamber, upright on a flat surface beneath and centered between two horizontal 24 inch fluorescent lamps, (GE, black light F20T12, 20 watt for ultraviolet, or Philips F20T12/CW, 20 watt for visible) placed 6 cm apart. The cuvettes were positioned such that their two clear sides were facing the two lamps.
Cuvettes were spaced ˜2 cm from each other, and no closer than 15 cm from the ends of the lamps. This positioning allowed reproducible light exposure to all cuvettes.
as §1, §2
The absorbance readings at 400 nm due to light exposure were plotted against time of exposure and the resulting correlation used to determine the UV and VIS light exposure. A change in absorbance reading of 0.45 was assumed equivalent to 200 watt hours/square meter for the UV light and a change of 0.51 was assumed equivalent to 1.2 million lux hours for the VIS light. The UV lamps provided 6.62 watts/square meter and the VIS lamps provided 7180 lux.
Aqueous solutions were prepared containing 473 mM iohexol (180 mg 1/mL), 10 mM tromethamine HCl buffer (TRIS), with and without various SCDs. The pH of the solutions was adjusted to 7.4 with 0.1N hydrochloric acid. Aliquots of the solutions were irradiated with ultraviolet (UV) light for 18 hours (119 watt hours/m^2) and other aliquots irradiated with visible (VIS) light for 90 hours (0.65 million lux hours). The solutions were then processed, analyzed and reported as in Example 2, with the exception that the iohexol peak was measured at 300 nm for both samples and standards. Results of the study are presented in the table below along with the SCD used. The SCDs included derivatives prepared from alpha, beta, and gamma CD to evaluate the effect of CD cavity size. Various substituents, including one derivative containing more than one type of substituent, and degrees of substitution (DS) were also evaluated.
Aqueous solutions were prepared containing 50 mM iodinated contrast agent, 10 mM tromethamine HCl buffer (TRIS), with and without sulfobutylether beta-cyclodextrin with an average degree of substitution-7 (SBE7-β-CD), or 2-hydroxypropyl beta-cyclodextrin with an average degree of substitution of ˜6.3 (HP6.3-β-CD) or ˜4.3 (HP4.3-β-CD). […]

## COCC(=O)Nc1c(I)c(C(=O)NCC(O)CO)c(I)c(C(=O)N(C)CC(O)CO)c1I (centres unmarked) [Iopromide, iopromide]
[1]; agent:SBE7-β-CD 1:0.1
  Iodide formed: 0.330 wt %
[1]; no SCD (1:0)
  Iodide formed: 0.487 wt %
[1]; Iopromide 150 mg I/mL, pH 7.4, agent:SBE7CD 1:0.05, autoclaved then UV 24 h
  Iodide Formed, UV: 0.110 wt %
[1]; Iopromide 150 mg I/mL, pH 7.4, agent:SBE7CD 1:0.05, autoclaved then VIS 72 h
  Iodide Formed, VIS: 0.0671 wt %
[1]; Iopromide 150 mg I/mL, pH 7.4, no SCD (1:0), autoclaved then UV 24 h
  Iodide Formed, UV: 0.148 wt %
[1]; Iopromide 150 mg I/mL, pH 7.4, no SCD (1:0), autoclaved then VIS 72 h
  Iodide Formed, VIS: 0.0735 wt %
[1]; Iopromide 240 mg I/mL, pH 7.4, agent:SBE7CD 1:0.05, autoclaved then UV 24 h
  Iodide Formed, UV: 0.113 wt %
[1]; Iopromide 240 mg I/mL, pH 7.4, agent:SBE7CD 1:0.05, autoclaved then VIS 72 h
  Iodide Formed, VIS: 0.0413 wt %
[1]; Iopromide 240 mg I/mL, pH 7.4, no SCD (1:0), autoclaved then UV 24 h
  Iodide Formed, UV: 0.129 wt %
[1]; Iopromide 240 mg I/mL, pH 7.4, no SCD (1:0), autoclaved then VIS 72 h
  Iodide Formed, VIS: 0.0504 wt %
[1]; Iopromide 300 mg I/mL, pH 7.4, agent:SBE7CD 1:0.05, autoclaved then UV 24 h
  Iodide Formed, UV: 0.102 wt %
[1]; Iopromide 300 mg I/mL, pH 7.4, agent:SBE7CD 1:0.05, autoclaved then VIS 72 h
  Iodide Formed, VIS: 0.0426 wt %
[1]; Iopromide 300 mg I/mL, pH 7.4, no SCD (1:0), autoclaved then UV 24 h
  Iodide Formed, UV: 0.110 wt %
[1]; Iopromide 300 mg I/mL, pH 7.4, no SCD (1:0), autoclaved then VIS 72 h
  Iodide Formed, VIS: 0.0493 wt %
[1]; Iopromide 370 mg I/mL, pH 7.4, agent:SBE7CD 1:0.05, autoclaved then UV 24 h
  Iodide Formed, UV: 0.0780 wt %
[1]; Iopromide 370 mg I/mL, pH 7.4, agent:SBE7CD 1:0.05, autoclaved then VIS 72 h
  Iodide Formed, VIS: 0.0351 wt %
[1]; Iopromide 370 mg I/mL, pH 7.4, no SCD (1:0), autoclaved then UV 24 h
  Iodide Formed, UV: 0.0989 wt %
[1]; Iopromide 370 mg I/mL, pH 7.4, no SCD (1:0), autoclaved then VIS 72 h
  Iodide Formed, VIS: 0.0392 wt %
[2]; agent:SBE7-β-CD 1:0.1
  Iodide formed: 0.269 wt %
[2]; no SCD (1:0)
  Iodide formed: 0.311 wt %

## O=C(NCC(O)CO)c1c(I)c(C(=O)NCC(O)CO)c(I)c(N(CCO)C(=O)CO)c1I (centres unmarked) [Ioversol, ioversol]
[1]; agent:SBE7-β-CD 1:0.1
  Iodide formed: 0.545 wt %
[1]; no SCD (1:0)
  Iodide formed: 0.665 wt %
[1]; 18 h, 50 mM, pH 7.4
  percent change in iodide degradants formed in the presence of the SCD: (−18%)
[1]; 160 mg I/mL
  percent change in iodide degradants, UV: (−24.0%)
  percent change in iodide degradants, VIS: (−9.9%)
[1]; 240 mg I/mL
  percent change in iodide degradants, UV: (−19.2%)
  percent change in iodide degradants, VIS: (−11.9%)
[1]; 300 mg I/mL
  percent change in iodide degradants, UV: (−17.2%)
  percent change in iodide degradants, VIS: (−17.4%)
[1]; 320 mg I/mL
  percent change in iodide degradants, UV: (−36.7%)
  percent change in iodide degradants, VIS: (−14.2%)
[1]; 350 mg I/mL
  percent change in iodide degradants, UV: (−26.8%)
  percent change in iodide degradants, VIS: (−11.7%)
[1]; Ioversol 160 mg I/mL, pH 7.1, agent:SBE7CD 1:0.05, autoclaved then UV 24 h
  Iodide Formed, UV: 0.171 wt %
[1]; Ioversol 160 mg I/mL, pH 7.1, agent:SBE7CD 1:0.05, autoclaved then VIS 72 h
  Iodide Formed, VIS: 0.0646 wt %
[1]; Ioversol 160 mg I/mL, pH 7.1, no SCD (1:0), autoclaved then UV 24 h
  Iodide Formed, UV: 0.225 wt %
[1]; Ioversol 160 mg I/mL, pH 7.1, no SCD (1:0), autoclaved then VIS 72 h
  Iodide Formed, VIS: 0.0717 wt %
[1]; Ioversol 240 mg I/mL, pH 7.1, agent:SBE7CD 1:0.05, autoclaved then UV 24 h
  Iodide Formed, UV: 0.126 wt %
[1]; Ioversol 240 mg I/mL, pH 7.1, agent:SBE7CD 1:0.05, autoclaved then VIS 72 h
  Iodide Formed, VIS: 0.0400 wt %
[1]; Ioversol 240 mg I/mL, pH 7.1, no SCD (1:0), autoclaved then UV 24 h
  Iodide Formed, UV: 0.156 wt %
[1]; Ioversol 240 mg I/mL, pH 7.1, no SCD (1:0), autoclaved then VIS 72 h
  Iodide Formed, VIS: 0.0454 wt %
[1]; Ioversol 300 mg I/mL, pH 7.1, agent:SBE7CD 1:0.05, autoclaved then UV 24 h
  Iodide Formed, UV: 0.111 wt %
[1]; Ioversol 300 mg I/mL, pH 7.1, agent:SBE7CD 1:0.05, autoclaved then VIS 72 h
  Iodide Formed, VIS: 0.0298 wt %
[1]; Ioversol 300 mg I/mL, pH 7.1, no SCD (1:0), autoclaved then UV 24 h
  Iodide Formed, UV: 0.134 wt %
[1]; Ioversol 300 mg I/mL, pH 7.1, no SCD (1:0), autoclaved then VIS 72 h
  Iodide Formed, VIS: 0.0361 wt %
[1]; Ioversol 320 mg I/mL, pH 7.1, agent:SBE7CD 1:0.05, autoclaved then UV 24 h
  Iodide Formed, UV: 0.0778 wt %
[1]; Ioversol 320 mg I/mL, pH 7.1, agent:SBE7CD 1:0.05, autoclaved then VIS 72 h
  Iodide Formed, VIS: 0.0277 wt %
[1]; Ioversol 320 mg I/mL, pH 7.1, no SCD (1:0), autoclaved then UV 24 h
  Iodide Formed, UV: 0.123 wt %
[1]; Ioversol 320 mg I/mL, pH 7.1, no SCD (1:0), autoclaved then VIS 72 h
  Iodide Formed, VIS: 0.0323 wt %
[1]; Ioversol 350 mg I/mL, pH 7.1, agent:SBE7CD 1:0.05, autoclaved then UV 24 h
  Iodide Formed, UV: 0.0864 wt %
[1]; Ioversol 350 mg I/mL, pH 7.1, agent:SBE7CD 1:0.05, autoclaved then VIS 72 h
  Iodide Formed, VIS: 0.0250 wt %
[1]; Ioversol 350 mg I/mL, pH 7.1, no SCD (1:0), autoclaved then UV 24 h
  Iodide Formed, UV: 0.118 wt %
[1]; Ioversol 350 mg I/mL, pH 7.1, no SCD (1:0), autoclaved then VIS 72 h
  Iodide Formed, VIS: 0.0283 wt %
[2]; agent:SBE7-β-CD 1:0.1
  Iodide formed: 0.301 wt %
[2]; no SCD (1:0)
  Iodide formed: 0.304 wt %
[2]; 72 h, 50 mM, pH 7.4
  percent change in iodide degradants formed in the presence of the SCD: (−1%)
